Converted amounts (≈) assume the structure as drawn. “And” between values parts separate entries of the source, which are not always exact repeats. Equal values may be shown once. Read-outs that look alike come from different tables or passages of the source.
How the values were obtained:
[1] = tested on: ODD-Luc (p97-independent proteasome substrate); assay: ODD-Luc reporter degradation assay, dual reporter HeLa cell line; assay type: cell-based; conditions: Homo sapiens, read-out: IC50 ODD-Luc
ubiquitin conjugates = assay: Ubiquitin conjugate accumulation immunoblot, SW403 cells; conditions: 5–10 μM; nuclear plus membrane and cytosolic compartments
NCI 60 cancer cell lines = assay: NCI 60-cell-line screen; assay type: cell-based; conditions: 48 h; for Mean GP: mean of 60 NCI cell lines ±SD
5-HT5a = 5-HT5a (Homo sapiens, UniProt P47898); assay: CNS panel binding; conditions: 5HT5a receptor
5-HT5a, sequence (P47898 whole entry, species assumed): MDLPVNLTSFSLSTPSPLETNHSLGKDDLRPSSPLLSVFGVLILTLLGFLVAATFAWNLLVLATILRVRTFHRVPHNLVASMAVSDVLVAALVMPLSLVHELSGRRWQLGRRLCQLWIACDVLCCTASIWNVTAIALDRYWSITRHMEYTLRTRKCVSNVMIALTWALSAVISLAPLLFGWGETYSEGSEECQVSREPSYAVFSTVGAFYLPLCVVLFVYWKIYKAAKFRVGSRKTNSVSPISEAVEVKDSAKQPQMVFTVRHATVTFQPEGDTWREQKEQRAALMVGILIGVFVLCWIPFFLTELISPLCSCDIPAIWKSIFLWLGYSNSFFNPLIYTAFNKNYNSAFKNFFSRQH

Plasma stability [2] = assay type: in vitro ADME; conditions: mouse
Plasma stability [3] = assay type: in vitro ADME; conditions: human
[4] = Hepatic microsome stability; assay type: in vitro ADME; conditions: human, liver microsomes
[5] = tested on: HMEC, PHMLEB, PHMLER cells; assay: Cellular viability; assay type: cell-based, human; conditions: 24 h, CellTiter-Glo
SW403 = assay: Cytotoxicity / antiproliferative activity; assay type: cell-based; conditions: Homo sapiens
PIP5K3 = PIP5K3 (Homo sapiens, UniProt Q9Y2I7); assay: KiNativ profiling; assay type: binding; conditions: 20 μM, ATP
PIP5K3, sequence (Q9Y2I7 whole entry): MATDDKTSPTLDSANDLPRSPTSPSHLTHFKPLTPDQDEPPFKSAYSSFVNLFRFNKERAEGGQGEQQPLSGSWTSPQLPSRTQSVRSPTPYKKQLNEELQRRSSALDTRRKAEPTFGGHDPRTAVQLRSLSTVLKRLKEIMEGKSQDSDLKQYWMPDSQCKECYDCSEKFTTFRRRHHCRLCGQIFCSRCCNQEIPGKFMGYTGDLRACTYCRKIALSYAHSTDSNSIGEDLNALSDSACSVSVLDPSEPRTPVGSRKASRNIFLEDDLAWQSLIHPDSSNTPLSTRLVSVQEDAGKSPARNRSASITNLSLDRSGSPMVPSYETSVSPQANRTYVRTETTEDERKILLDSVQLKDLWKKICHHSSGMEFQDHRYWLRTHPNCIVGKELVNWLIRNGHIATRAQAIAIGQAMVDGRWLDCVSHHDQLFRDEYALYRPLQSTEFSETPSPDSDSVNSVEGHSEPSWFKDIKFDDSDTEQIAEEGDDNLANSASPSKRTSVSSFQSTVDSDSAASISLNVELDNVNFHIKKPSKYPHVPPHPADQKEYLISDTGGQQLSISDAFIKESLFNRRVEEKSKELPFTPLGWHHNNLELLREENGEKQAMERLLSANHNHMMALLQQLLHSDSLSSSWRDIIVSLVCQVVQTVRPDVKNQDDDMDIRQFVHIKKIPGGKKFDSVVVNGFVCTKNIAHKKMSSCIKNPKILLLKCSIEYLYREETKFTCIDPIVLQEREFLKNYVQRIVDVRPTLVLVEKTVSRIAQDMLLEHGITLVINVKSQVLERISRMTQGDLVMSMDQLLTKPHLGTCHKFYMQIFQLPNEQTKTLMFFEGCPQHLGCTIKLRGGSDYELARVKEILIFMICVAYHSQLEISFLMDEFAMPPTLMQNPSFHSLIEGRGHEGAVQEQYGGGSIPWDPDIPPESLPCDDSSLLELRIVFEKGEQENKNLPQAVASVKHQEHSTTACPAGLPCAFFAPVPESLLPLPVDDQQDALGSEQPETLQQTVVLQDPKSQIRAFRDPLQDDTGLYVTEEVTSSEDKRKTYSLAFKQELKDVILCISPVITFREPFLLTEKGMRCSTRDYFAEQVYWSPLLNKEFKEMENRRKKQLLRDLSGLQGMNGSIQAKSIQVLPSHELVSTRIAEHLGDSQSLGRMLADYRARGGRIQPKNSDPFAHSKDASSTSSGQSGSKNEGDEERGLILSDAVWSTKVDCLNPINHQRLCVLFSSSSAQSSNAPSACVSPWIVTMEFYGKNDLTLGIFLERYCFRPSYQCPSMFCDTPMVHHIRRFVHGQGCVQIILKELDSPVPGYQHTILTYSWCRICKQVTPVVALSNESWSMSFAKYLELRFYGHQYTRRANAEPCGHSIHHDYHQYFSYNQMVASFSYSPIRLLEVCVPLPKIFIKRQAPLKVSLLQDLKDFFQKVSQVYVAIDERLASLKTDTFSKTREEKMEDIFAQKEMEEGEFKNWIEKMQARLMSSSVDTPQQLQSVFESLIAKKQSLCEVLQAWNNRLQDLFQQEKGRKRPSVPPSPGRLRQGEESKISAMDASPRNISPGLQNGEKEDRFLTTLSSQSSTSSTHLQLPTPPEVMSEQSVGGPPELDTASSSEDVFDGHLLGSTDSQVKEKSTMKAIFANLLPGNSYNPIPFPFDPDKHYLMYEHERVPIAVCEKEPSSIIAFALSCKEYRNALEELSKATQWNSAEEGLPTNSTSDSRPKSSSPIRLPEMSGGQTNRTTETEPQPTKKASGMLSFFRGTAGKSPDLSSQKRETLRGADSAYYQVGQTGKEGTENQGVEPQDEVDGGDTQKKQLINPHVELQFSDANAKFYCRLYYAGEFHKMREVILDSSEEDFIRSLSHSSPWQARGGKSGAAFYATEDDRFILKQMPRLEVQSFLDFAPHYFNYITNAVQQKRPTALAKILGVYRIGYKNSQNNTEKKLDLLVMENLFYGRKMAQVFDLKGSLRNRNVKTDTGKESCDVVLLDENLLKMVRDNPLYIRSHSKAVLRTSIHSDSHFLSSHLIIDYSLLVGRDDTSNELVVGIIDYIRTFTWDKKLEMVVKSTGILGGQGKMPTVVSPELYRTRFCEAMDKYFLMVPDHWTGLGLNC

caspases 3 and 7 = assay: Caspase 3 and 7 activity in colon cancer cell lines; assay type: cell-based; conditions: multiple colon cancer cell lines; dose- and time-dependent
Plasma protein binding [6] = assay type: in vitro ADME; conditions: human
Aqueous solubility = assay type: physicochemical; conditions: aqueous buffer
PAMPA = assay type: in vitro ADME; conditions: acceptor pH 7.4; for Papp: PAMPA; for PAMPA Pe: in the presence of 20% CH3CN
[7] = tested on: poly(ADP-ribose) polymerase (PARP); assay: PARP cleavage immunoblot, SW403 cells; assay type: cell-based; conditions: 2 h
Hepatic toxicity = assay type: cell-based; conditions: human, Fa2N-4 immortalized human hepatocytes
LC3-II = assay: Autophagy reporter LC3-II immunoblot; conditions: for accumulation of lipidated LC3-II: HEK293, 5 h
JAK1 domain1 = JAK1 domain1 (Homo sapiens, UniProt P23458); assay: KiNativ profiling; assay type: binding; conditions: 20 μM, Other
JAK1 domain1, sequence (P23458 whole entry, the tested form may be a part): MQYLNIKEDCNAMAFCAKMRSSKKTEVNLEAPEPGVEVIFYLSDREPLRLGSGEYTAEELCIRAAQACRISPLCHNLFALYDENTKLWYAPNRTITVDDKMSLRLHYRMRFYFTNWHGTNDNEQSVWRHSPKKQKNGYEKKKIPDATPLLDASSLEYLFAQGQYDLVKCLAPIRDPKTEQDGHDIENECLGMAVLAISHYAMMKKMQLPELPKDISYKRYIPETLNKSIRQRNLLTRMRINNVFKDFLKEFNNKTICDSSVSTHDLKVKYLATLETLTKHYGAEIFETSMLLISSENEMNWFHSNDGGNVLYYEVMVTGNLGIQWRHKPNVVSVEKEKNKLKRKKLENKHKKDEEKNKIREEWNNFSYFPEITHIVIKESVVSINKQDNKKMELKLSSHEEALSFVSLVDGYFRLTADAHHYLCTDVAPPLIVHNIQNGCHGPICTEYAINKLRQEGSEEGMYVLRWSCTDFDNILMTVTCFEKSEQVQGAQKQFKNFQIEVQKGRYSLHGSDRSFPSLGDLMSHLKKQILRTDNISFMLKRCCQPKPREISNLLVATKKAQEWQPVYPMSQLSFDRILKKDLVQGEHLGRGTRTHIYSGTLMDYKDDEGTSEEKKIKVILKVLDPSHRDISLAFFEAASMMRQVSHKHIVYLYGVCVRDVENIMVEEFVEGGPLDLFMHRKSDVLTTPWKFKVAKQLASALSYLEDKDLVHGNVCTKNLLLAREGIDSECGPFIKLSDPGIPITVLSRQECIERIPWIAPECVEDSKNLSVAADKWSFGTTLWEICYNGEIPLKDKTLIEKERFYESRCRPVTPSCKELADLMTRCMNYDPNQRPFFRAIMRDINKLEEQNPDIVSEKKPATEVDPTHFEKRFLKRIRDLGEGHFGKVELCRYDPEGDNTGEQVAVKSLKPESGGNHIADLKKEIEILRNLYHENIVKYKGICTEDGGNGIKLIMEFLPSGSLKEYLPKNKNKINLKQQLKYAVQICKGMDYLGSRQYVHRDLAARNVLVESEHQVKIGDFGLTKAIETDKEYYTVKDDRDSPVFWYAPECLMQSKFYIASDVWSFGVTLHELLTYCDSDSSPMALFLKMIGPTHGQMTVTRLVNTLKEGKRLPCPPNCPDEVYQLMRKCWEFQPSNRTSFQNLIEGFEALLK

p97 ATPase = p97 ATPase (Homo sapiens, UniProt P55072); assay: p97 ATPase assay; assay type: biochemical; conditions: for IC50: IC50 ATPase, triplicate, mean ±SD
p97 ATPase, sequence (P55072 whole entry): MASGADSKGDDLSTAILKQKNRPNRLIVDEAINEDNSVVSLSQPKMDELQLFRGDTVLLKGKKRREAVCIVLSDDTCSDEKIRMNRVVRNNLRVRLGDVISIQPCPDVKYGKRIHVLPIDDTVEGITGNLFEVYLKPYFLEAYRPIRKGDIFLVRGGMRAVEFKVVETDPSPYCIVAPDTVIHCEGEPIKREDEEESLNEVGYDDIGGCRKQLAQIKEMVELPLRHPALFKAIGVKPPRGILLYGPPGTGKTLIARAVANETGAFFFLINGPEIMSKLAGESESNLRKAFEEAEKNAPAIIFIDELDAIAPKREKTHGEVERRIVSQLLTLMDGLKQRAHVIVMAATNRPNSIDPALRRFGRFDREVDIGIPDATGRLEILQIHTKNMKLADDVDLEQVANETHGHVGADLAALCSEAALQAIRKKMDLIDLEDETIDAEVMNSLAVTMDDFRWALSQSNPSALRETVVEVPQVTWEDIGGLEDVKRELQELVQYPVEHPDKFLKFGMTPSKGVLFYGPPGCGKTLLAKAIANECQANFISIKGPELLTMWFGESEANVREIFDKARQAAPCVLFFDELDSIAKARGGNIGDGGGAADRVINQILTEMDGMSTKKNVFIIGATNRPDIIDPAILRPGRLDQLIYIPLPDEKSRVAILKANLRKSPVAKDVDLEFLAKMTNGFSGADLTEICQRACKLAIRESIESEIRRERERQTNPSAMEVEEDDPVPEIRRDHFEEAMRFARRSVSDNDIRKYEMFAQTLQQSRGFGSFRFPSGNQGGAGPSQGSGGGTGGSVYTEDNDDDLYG

HCT15 = assay: Cytotoxicity / antiproliferative activity; assay type: cell-based; conditions: Homo sapiens
Plasma protein binding [8] = assay type: in vitro ADME; conditions: mouse
[9] = Hepatic microsome stability; assay type: in vitro ADME; conditions: mouse, liver microsomes
∼170 kinases = assay: KiNativ kinase profiling, whole panel, PC3 cell lysate; assay type: binding, Homo sapiens; conditions: 20 μM
[10] = SW-403, 24 h, read-out: Cytotoxicity GI50 SW403 24 h
[11] = SW-403, 72 h, read-out: Cytotoxicity GI50 SW403 72 h
[12] = HCT-15, 24 h, read-out: Cytotoxicity GI50 HCT15 24 h
[13] = HCT-15, 72 h, read-out: Cytotoxicity GI50 HCT15 72 h

SMILES	IC50 [1] [µM]	accumulation of ubiquitin conjugates (ubiquitin conjugates)	Mean GP (NCI 60 cancer cell lines) [%]	remaining at 3 h (Plasma stability [2]) [%]	remaining at 3 h (Plasma stability [3]) [%]	remaining at 1 h [4] [%]	GI50 (SW403; [10]) [µM]	GI50 (SW403; [11]) [µM]	fraction unbound at 1 μM (Plasma protein binding [6])	fraction unbound at 10 μM (Plasma protein binding [6])	solubility (Aqueous solubility; pH 5, aqueous buffer) [µg/mL]	solubility (Aqueous solubility; pH 6.2, aqueous buffer) [µg/mL]	solubility (Aqueous solubility; pH 7.4, aqueous buffer) [µg/mL]	CC50 (Hepatic toxicity) [µM]	accumulation of lipidated LC3-II (LC3-II)	Ki (p97 ATPase) [µM]	mechanism of p97 inhibition with respect to ATP (p97 ATPase)	IC50 (p97 ATPase)	GI50 (HCT15; [12]) [µM]	GI50 (HCT15; [13]) [µM]	further results
COc1cccc2c(NCc3ccccc3)nc(-n3c(N)nc4ccccc43)nc12 [ML240, 2-(2-Amino-1H-benzo[d]imidazol-1-yl)-N-benzyl-8-methoxyquinazolin-4-amine]	28 ± 7	caused accumulation of ubiquitin conjugates	−84.5±15.5	100	100	54.3	0.5 ± 0.07	0.5 ± 0.1	0.0047	0.0029	0.35 (≈ 0.883 µM)	0.33 (≈ 0.832 µM)	0.27 (≈ 0.681 µM)	8.5	induced accumulation	0.22	competitively	~0.1 µM and 0.1 µM	0.76 ± 0.14	0.54 ± 0.19	Highest GP (NCI 60 cancer cell lines; least inhibited individual cancer cell line): −43.8 (HS 578T) %; Lowest GP (NCI 60 cancer cell lines; most inhibited individual cancer cell line): −100.0 (OVCAR-4) %; Ki (5-HT5a): 2.5 µM; potency on normal vs immortalized and tumorigenic cell lines [5]: slightly greater potency toward the immortalized and transformed cells; % Inhibition (PIP5K3): > 50%; induction of caspase activity (caspases 3 and 7): induced caspase activity; Papp (PAMPA; PAMPA Pe, donor pH 5.0): 357 ×10⁻⁶ cm/s; Papp (PAMPA; PAMPA Pe, donor pH 6.2): 628 ×10⁻⁶ cm/s; Papp (PAMPA; pH 7.4, PAMPA Pe, donor pH 7.4): < 60.3 ×10⁻⁶ cm/s; cleavage of PARP [7]: induced efficient cleavage; time of LC3-II accumulation after addition of drug (LC3-II; HCT116, 10 μM, as early as): 10 min; % Inhibition (JAK1 domain1): > 50%; fraction unbound at 1 μM (Plasma protein binding [8]): 0.0027; fraction unbound at 10 μM (Plasma protein binding [8]): 0.0037; remaining at 1 h [9]: 0.63%
c1ccc(CNc2nc(N3CCOc4ccccc43)nc3c2CCCC3)cc1 [ML241, 2-(2H-Benzo[b][1,4]oxazin-4(3H)-yl)-N-benzyl-5,6,7,8-tetrahydroquinazolin-4-amine]	46 ± 8	caused accumulation of ubiquitin conjugates	92.8±22.8	100	100	19	33 ± 7	12 ± 3	0.0003	0.0005	28 (≈ 75.2 µM)	0.13 (≈ 0.349 µM)	0.2 (≈ 0.537 µM)	> 50	lack of effect	0.35	competitively	~0.1 µM and 0.1 µM	53 ± 5	13 ± 4	PAMPA Pe (PAMPA; donor pH 5.0): 1164 ×10⁻⁶ cm/s; PAMPA Pe (PAMPA; donor pH 6.2): 2504 ×10⁻⁶ cm/s; PAMPA Pe (PAMPA; donor pH 7.4): 2278 ×10⁻⁶ cm/s; fraction unbound at 1 μM (Plasma protein binding [8]): 0.0005; fraction unbound at 10 μM (Plasma protein binding [8]): 0.0009; remaining at 1 h [9]: 2.57%; inhibition of labeling across the panel (∼170 kinases): did not appreciably inhibit labeling

Reference: paper PMC3662613 (Chemmedchem, 2013)
